Legend:
[1] = Rat pharmacokinetic experiment; assay type: in vivo; conditions: male Sprague-Dawley rats, single dose 3 mg/kg intravenously, 10 mg/kg orally
Procedure: 6 male Sprague-Dawley rats (7-8 weeks old, and weighted approximately 210 g) were divided into 2 groups with 3 rats in each group. The rats were intravenously or orally administered a single dose of compound (3 mg/kg intravenously, 10 mg/kg orally) to compare pharmacokinetic differences.
The rats were raised on standard food and water. Fasting was started 16 hours before the test. The drug was dissolved with PEG400 and dimethyl sulfoxide. The blood samples were collected from eyelids at the time points of 0.083 hours, 0.25 hours, 0.5 hours, 1 hour, 2 hours, 4 hours, 6 hours, 8 hours, 12 hours, and 24 hours after administration.
Rats were briefly anesthetized after inhalation of diethyl ether and 300 μL of blood sample was collected from the eyelids into test tubes. There was 30 μL of 1% heparin salt solution in the test tube. Tubes were dried at 60° C. overnight before use. After the blood sample was collected at the last time point, the rats were sacrificed after ether anesthesia.
Immediately after the collection of the blood sample, the test tube was gently inverted at least 5 times to ensure sufficient mixing and then placed on ice. […] The concentration of the compound disclosed herein in plasma was determined by LC-MS/MS. The pharmacokinetic parameters were calculated based on the drug concentration in blood of each animal at different time points.

[2] = system: BaF3-EpoR-JAK2/V617F cells; assay: Cytotoxicity assay, BaF3-EpoR-JAK2/V617F cells (CellTiter-Glo); assay type: cell-based; conditions: 72 h; 3 days incubation, 1 ng/ml IL-3, CellTiter-Glo
Procedure: Assay method: 1. Preparation of cell plates. […] The cell plates were placed in a carbon dioxide incubator for overnight culture. 2. The test compounds were dissolved in DMSO and subjected to 3-fold gradient dilution, 9 compound concentrations were obtained in duplicate. 3. Treatments of Cells with Compounds. The compounds were transferred to cell plates, and the starting concentration of the compounds is 10 μM. The cell plates were incubated in a carbon dioxide incubator for 3 days. 4. Detection. A CellTiter-Glo reagent was added to the cell plates and incubated for 30 minutes at room temperature to stabilize the luminescence signal. Reading was obtained using a PerkinElmer Envision multi-label analyzer.

[3] = Metabolic stability evaluation, mouse liver microsome experiment; assay type: in vitro ADME; conditions: liver microsomes, pH 7.4, 1 μM compound, 0.5 mg/mL protein, 37° C.; for half-life at 1 μM: read-out: Mouse liver microsome experiment t1/2
Procedure: (§1) Microsomal experiment: human liver microsomes: 0.5 mg/mL, Xenotech; rat liver microsomes: 0.5 mg/mL, Xenotech; mouse liver microsomes: 0.5 mg/mL, Xenotech; coenzyme (NADPH/NADH): 1 mM, Sigma Life Science; magnesium chloride: 5 mM, 100 mM phosphate buffer (pH 7.4).
(§2) Preparation of a stock solution: A certain amount of the powder of the example compounds was accurately weighed and dissolved in DMSO to a 5 mM concentration.
(§3) Preparation of phosphate buffer (100 mM, pH 7.4): 150 mL of a pre-prepared 0.5 M potassium dihydrogen phosphate and 700 mL of a pre-prepared 0.5 M dipotassium hydrogen phosphate were mixed. The mixture was then adjusted to pH 7.4 with a 0.5 M dipotassium hydrogen phosphate solution. The mixture was diluted 5-fold with ultrapure water before use, and magnesium chloride was added to obtain a phosphate buffer (100 mM) containing 100 mM potassium phosphate, 3.3 mM magnesium chloride, and a pH of 7.4.
(§4) A solution of NADPH regeneration system (containing 6.5 mM NADP, 16.5 mM G-6-P, 3 U/mL G-6-P D, 3.3 mM magnesium chloride) was prepared and placed on wet ice before use.
(§5) Preparation of a stop solution: an acetonitrile solution containing 50 ng/mL propranolol hydrochloride and 200 ng/mL tolbutamide (internal standard). 25057.5 μL of phosphate buffer (pH 7.4) was added into a 50 mL centrifuge tube, 812.5 μL of human liver microsomes, rat liver microsomes and mouse liver microsomes were then added into the 50 mL centrifuge tube, respectively, and the mixtures were mixed evenly to obtain liver microsome dilutions with a protein concentration of 0.625 mg/mL. Incubation of samples: The stock solutions of the corresponding compounds were diluted to 0.25 mM with an aqueous solution containing 70% acetonitrile, respectively, and used as working solutions ready for use. 398 μL of dilutions of human liver microsomes or rat liver microsomes or mouse liver microsome were added to 96-well incubation plates (N=2), and then 2 μL of 0.25 mM working solutions were added and mixed, respectively.
(§6) Determination of metabolic stability: 300 μL of a pre-cooled stop solution was added to each well of a 96-well deep well plate and placed on ice as a stop plate. The 96-well incubation plate and the NADPH regeneration system were placed in a 37° C. water bath, shaken at 100 rpm, and pre-incubated for 5 min. 80 μL of an incubation solution was taken from each well of the incubation plate and added to the stop plate, mixed evenly, and replenished with 20 μL of NADPH regeneration system solution as a 0 min sample. 80 μL of NADPH regeneration system solution was then added to each well of the incubation plate to start the reaction, and timing was started. […] 100 μL of the reaction solution was taken at 10, 30, and 90 min after reaction, respectively, added to the stop plate, and vortexed for 3 minutes to terminate the reaction. The stop plate was centrifuged for 10 min at 5000×g at 4° C. 100 μL of the supernatant was added to a 96-well plate to which 100 μL of distilled water was previously added, mixed evenly, and analyzed by LC-MS/MS.
(§7) Data analysis: The peak areas of the corresponding compounds and internal standard were detected by LC-MS/MS system, and the ratio of the peak areas of the compounds to the internal standard was calculated.

[4] = system: BaF3-EpoR-JAK2 cells; assay: Cytotoxicity assay, BaF3-EpoR-JAK2 cells (CellTiter-Glo); assay type: cell-based; conditions: 72 h; 3 days incubation, 1 ng/ml IL-3, CellTiter-Glo
Procedure: The inhibitory effects of example compounds on the activity of BaF3-EpoR-JAK2 and BaF3-EpoR-JAK2/V617F cells were determined.
Materials and reagents: RPMI-1640 medium (GIBCO, Cat. No. A10491-01), fetal bovine serum (GIBCO, Cat. No. 10099-141), antibiotics (GIBCO, Cat. No. 10010-031), IL-3 (CST, Cat. No. 8923SF), phosphate buffer solution PBS (GIBCO, Cat. No. 10010-0312), penicillin-streptomycin (GIBCO, Cat. No. 15140-122);
Cell lines: BaF3-EpoR-JAK2 cells (Pharmaron), BaF3-EpoR-JAK2/V617F cells (Pharmaron), live cell assay kit CellTiter-Glo4 (Promega, Cat. No. G7572), 96-well black-wall clear flat-bottom cell culture plate (Corning, Cat. No. 3340).
Assay method: 1. Preparation of cell plates. BaF3-EpoR-JAK2 cells and BaF3-EpoR-JAK2/V617F cells were seeded in 96-well plates, respectively, and 1 ng/ml IL-3 was added to Ba/F3 cells. The cell plates were placed in a carbon dioxide incubator for overnight culture. 2. The test compounds were dissolved in DMSO and subjected to 3-fold gradient dilution, 9 compound concentrations were obtained in duplicate. 3. Treatments of Cells with Compounds. The compounds were transferred to cell plates, and the starting concentration of the compounds is 10 μM. The cell plates were incubated in a carbon dioxide incubator for 3 days. 4. Detection. A CellTiter-Glo reagent was added to the cell plates and incubated for 30 minutes at room temperature to stabilize the luminescence signal. Reading was obtained using a PerkinElmer Envision multi-label analyzer.

[5] = Metabolic stability evaluation, human liver microsome experiment; assay type: in vitro ADME; conditions: liver microsomes, pH 7.4, 1 μM compound, 0.5 mg/mL protein, 37° C.; for half-life at 1 μM: read-out: Human liver microsome experiment t1/2
Procedure: as §1, §2, §3, §4, §5, §6, §7

[6] = Metabolic stability evaluation, rat liver microsome experiment; assay type: in vitro ADME; conditions: liver microsomes, pH 7.4, 1 μM compound, 0.5 mg/mL protein, 37° C.; for half-life at 1 μM: read-out: Rat liver microsome experiment t1/2
Procedure: as §1, §2, §3, §4, §5, §6, §7

Row | SMILES | Oral availability [1] [%] | microsomal CLint at 1 μM [3] [µL/min/mg] | half-life at 1 μM [3] [min] | microsomal CLint at 1 μM [5] [µL/min/mg] | half-life at 1 μM [5] [min] | microsomal CLint at 1 μM [6] [µL/min/mg] | half-life at 1 μM [6] [min] | IC50 [2] [nM] | IC50 [4] [nM]
1 | [2H]C([2H])(Oc1ccc(Nc2ncc(C)c(Nc3cccc(S(=O)(=O)NC(C)(C)C)c3)n2)cc1)C([2H])([2H])N1CCCC1 [Compound T-1, N-(tert-butyl)-3-((5-methyl-2-((4-(2-(pyrrolidin-1-yl)ethoxy-1,1,2,2-d4)phenyl)amino)pyrimidin-4-yl)amino)benzenesulfonamide] | – | 157 | 8.8 | 6.8 | 203 | 73.9 | 18.7 | 206 | 536
2 | [2H]c1nc(Nc2ccc(OCCN3CCCC3)cc2)nc(Nc2cccc(S(=O)(=O)NC(C)(C)C)c2)c1C([2H])([2H])[2H] [Compound T-2, N-(tert-butyl)-3-((5-(methyl-d3)-2-((4-(2-(pyrrolidin-1-yl)ethoxy)phenyl)amino)pyrimidin-4-yl-6-d)amino)benzenesulfonamide] | – | 174 | 8 | – | – | – | – | 196 | 725
3 | [2H]C([2H])([2H])C(C)(NS(=O)(=O)c1cccc(Nc2nc(Nc3ccc(OCCN4CCCC4)cc3)ncc2C)c1)C([2H])([2H])[2H] [Compound T-3, 3-((5-methyl-2-((4-(2-(pyrrolidin-1-yl)ethoxy)phenyl)amino)pyrimidin-4-yl)amino)-N-(2-methylpropan-2-yl-1,1,1,3,3,3-d6)benzenesulfonamide] | – | 206 | 6.7 | – | – | 80.4 | 17.2 | 244 | 604
4 | [2H]C([2H])([2H])C(NS(=O)(=O)c1cccc(Nc2nc(Nc3ccc(OCCN4CCCC4)cc3)ncc2C)c1)(C([2H])([2H])[2H])C([2H])([2H])[2H] [Compound T-4, 3-((5-methyl-2-((4-(2-(pyrrolidin-1-yl)ethoxy)phenyl)amino)pyrimidin-4-yl)amino)-N-(2-(methyl-d3)propan-2-yl-1,1,1,3,3,3-d6)benzenesulfonamide] | – | 194 | 7.1 | – | – | 76.6 | 18.1 | 238 | 587

Second part, led by results:

Row | Oral availability [1] [%] | microsomal CLint at 1 μM [3] [µL/min/mg] | half-life at 1 μM [3] [min] | microsomal CLint at 1 μM [5] [µL/min/mg] | half-life at 1 μM [5] [min] | microsomal CLint at 1 μM [6] [µL/min/mg] | half-life at 1 μM [6] [min] | SMILES | IC50 [2] [nM] | IC50 [4] [nM]
5 | 7.24 | 238 | 5.8 | 12.5 | 111 | 81.3 | 17 | Cc1cnc(Nc2ccc(OCCN3CCCC3)cc2)nc1Nc1cccc(S(=O)(=O)NC(C)(C)C)c1 [Fedratinib, N-(tert-butyl)-3-((5-methyl-2-((4-(2-(pyrrolidin-1-yl)ethoxy)phenyl)amino)pyrimidin-4-yl)amino)benzenesulfonamide, reference compound] | 211 | 653
6 | 7.48 | 158 | 8.8 | 11.5 | 121 | 77 | 18 | [2H]C1([2H])N(CCOc2ccc(Nc3ncc(C)c(Nc4cccc(S(=O)(=O)NC(C)(C)C)c4)n3)cc2)C([2H])([2H])C([2H])([2H])C1([2H])[2H] [Compound T-5, N-(tert-butyl)-3-((5-methyl-2-((4-(2-(pyrrolidin-1-yl-d8)ethoxy)phenyl)amino)pyrimidin-4-yl)amino)benzenesulfonamide] | 269 | 690
